Values of other authors in patent US8697115B2, “Method of improving antioxidant status of an infant” (Abbott Laboratories, priority 2002, dated 2014).

Key:
[1] = α-tocopherol equivalents; from Vitamin E in Health and Disease, 1993
[2] = Food Chemicals Codex effective Jul. 1, 1996
[3] = capsule with both forms for 5 days prior to giving birth
[4] = adults

| Structure (SMILES) | Activity as α-TE (mg/mg compound) [1] [mg/mg compound] | Activity (IU/mg) [2] [IU/mg] | further results |
| --- | --- | --- | --- |
| Cc1cc(O)c(C)c2c1O[C@](C)(CCC[C@H](C)CCC[C@H](C)CCCC(C)C)CC2 [RRR-β-tocopherol] | 0.5 |  |  |
| Cc1c(C)c2c(c(C)c1O)CC[C@@](C)(CCC[C@H](C)CCC[C@H](C)CCCC(C)C)O2 [RRR-α-tocopherol, 2R,4′R,8′R-α-tocopherol] | 1.0 | 1.49 | amount in placental cord blood relative to synthetic vitamin E [3]: ~3.5 times; concentration in the mother's own blood at delivery relative to synthetic vitamin E ([3]; in words): nearly twice; enrichment in VLDL secreted by the liver over all-rac-α-tocopherol [4]: 4 fold |
| CC(=O)Oc1c(C)c(C)c2c(c1C)CC[C@@](C)(CCC[C@H](C)CCC[C@H](C)CCCC(C)C)O2 [d-α-tocopherol acetate] |  | 1.36 | preferential utilization compared to all-rac-α-tocopheryl acetate ([4]; in words): about twice |
| Cc1c(C)c2c(c(C)c1OC(=O)CCC(=O)O)CC[C@@](C)(CCC[C@H](C)CCC[C@H](C)CCCC(C)C)O2 [d-α-tocopherol acid succinate] |  | 1.21 |  |
| CC(C)=CCC/C(C)=C/CC/C(C)=C/CC[C@]1(C)CCc2c(C)c(O)cc(C)c2O1 [RRR-β-tocotrienol] | 0.05 |  |  |
| Cc1cc(O)cc2c1O[C@](C)(CCC[C@H](C)CCC[C@H](C)CCCC(C)C)CC2 [RRR-δ-tocopherol] | 0.03 |  |  |
| Cc1c(C)c2c(c(C)c1O)CCC(C)(CCCC(C)CCCC(C)CCCC(C)C)O2 (racemic) [d,l-α-tocopherol, 2DL,4′DL,8′DL-α-tocopherol] |  | 1.1 |  |
| CC(=O)Oc1c(C)c(C)c2c(c1C)CCC(C)(CCCC(C)CCCC(C)CCCC(C)C)O2 (stereo not drawn) [d,l-α-tocopherol acetate] | 0.74 | 1.0 |  |
| Cc1c(O)cc2c(c1C)O[C@](C)(CCC[C@H](C)CCC[C@H](C)CCCC(C)C)CC2 [RRR-γ-tocopherol] | 0.1 |  |  |
| Cc1c(C)c2c(c(C)c1OC(=O)CCC(=O)O)CCC(C)(CCCC(C)CCCC(C)CCCC(C)C)O2 (stereo not drawn) [d,l-α-tocopherol acid succinate] |  | 0.89 |  |
| CC(C)=CCC/C(C)=C/CC/C(C)=C/CC[C@]1(C)CCc2c(C)c(O)c(C)c(C)c2O1 [RRR-α-tocotrienol] | 0.3 |  |  |
